Assay results as given in article PMC5509550, “Development of a Novel Lead that Targets M. tuberculosis Polyketide Synthase 13” (Cell, 2017).
In brackets after ≈: the same amount, converted by molar mass.

Assays:
Mtb mc^27000 = assay type: cell-based, Mycobacterium tuberculosis
[1] = system: TAM16-resistant Mtb mutants (Pks13 D1644G or D1644Y); assay type: cell-based, Mycobacterium tuberculosis

| Compound | frequency of resistance observed for INH (Mtb mc^27000) | MIC against TAM16-resistant mutants [1] [µM] |
| --- | --- | --- |
| NNC(=O)c1ccncc1 [INH, Isoniazid] | 1 × 10^−6 | 0.2 (≈ 0.0274 µg/mL) |
| CO[C@H]1/C=C/O[C@@]2(C)Oc3c(C)c(O)c4c(O)c(c(/C=N/N5CCN(C)CC5)c(O)c4c3C2=O)NC(=O)/C(C)=C\C=C\[C@H](C)[C@H](O)[C@@H](C)[C@@H](O)[C@@H](C)[C@H](OC(C)=O)[C@@H]1C [RIF, Rifampicin] | – | 0.04 (≈ 0.0329 µg/mL) |
